Experimental data taken from PMC8581430, “Peptide ligands targeting FGF receptors promote recovery from dorsal root crush injury via AKT/mTOR signaling” (Theranostics, 2021).

Tested on: AKT (phosphorylated) in DRG explants
Assay: Western blot of phosphorylated AKT in DRG explants
Assay type: cell-based, rat
Details: CH02 20 μM + BGJ398 2 μM, 4 h, n = 3
Excerpt: Figure 6 Phosphoproteomic profiling of the intracellular signaling pathway used by CH02 for augmenting nerve regeneration. (A) GO biological process analysis of proteins corresponding to differentially expressed phosphorylated peptides. Ordinates indicate the enriched GO terms; abscissae represent the gene ratio; size of the dots indicates the number of proteins enriched in this biological process. (B) KEGG pathway analysis of proteins corresponding to differentially expressed phosphorylated peptides. Ordinates indicate the enriched pathway term; abscissae represent the gene ratio; size of the dots indicates number of proteins enriched in this pathway. […] (D-E) Quantification of p-ERK1/2 and p-AKT expression levels. n = 3 independent experiments. Relative protein expression level was quantified after normalization to the corresponding total proteins. […] (G-H) Quantification of p-ERK1/2 and p-AKT expression levels. n = 3 independent experiments. Relative protein expression level was quantified after normalization to the corresponding total proteins. […] The axon is shown in fluorescence (NF200) images. […] For quantification of axon length, neurons were immunostained using an antibody against β-tubulin. […] (N) Quantification of TUNEL-positive neurons (M) using ImageJ software (n = 5 for each condition; ***p < 0.001 by one-way ANOVA with Dunnett's test; mean ± SEM). […]

SMILES: CCN1CCN(c2ccc(Nc3cc(N(C)C(=O)Nc4c(Cl)c(OC)cc(OC)c4Cl)ncn3)cc2)CC1 [BGJ398]
- effect of inhibitor on CH02-upregulated phosphorylated AKT: counteracted CH02 effect on upregulating phosphorylated AKT and ERK levels
